# From US11793218B2, “Sweetener and flavor compositions, methods of making and methods of use thereof” (EPC Natural Products Co., Ltd., priority 2018, dated 2023)
# Experiments:
# [1] = Sensory evaluation of the samples prepared in Example 50 (Example 52); format: in vivo, human; design: key to Intensity of Smell: “+” for slight; “++” for moderate; “+++” for very strong
# Procedure: The reaction partner (amino acid, carbohydrate source) were dissolved/suspended in the reaction solvent and transferred into a glass beaker filled with sand pre-heated for at least 30 minutes at the reaction temperature in a drying oven. After the planned reaction time, the vials were transferred into ice water. After cooling to room temperature, sensory analysis and analytical characterization was performed.
# For evaluation of the taste profile, the samples were tested by a panel of four people. 1 trained taster tasted independently the samples first. The taster was asked to describe the taste profile and score 0-5 according to the increasing sugar likeness, bitterness, aftertaste and lingering taste profiles. The first taster was allowed to re-taste, and then make notes for the sensory attributes perceived. Afterwards, another 3 tasters tasted and the attributes were noted and discussed openly to find a suitable description. In case that more than 1 taster disagreed with the results, the tasting was repeated. In some sensory test results (above), the taste rating was expressed by “+”, which means the intensity of the factors is shown by three levels. “+” for slight, “++” for moderate and “+++” for very strong.
# [2] = Sensory analysis of odor/smell, color and taste of Maillard reaction samples at 22 C (Examples 55-62); format: in vivo, human
# Procedure: The reaction partners were dissolved in water and then warmed glycerin (60° C.) was added. […]
# […] After 20 minutes in the ice bath the sealed vials were put in a water bath set to 22° C.
# The odor/smell was assessed independently by 3 persons; the final description was agreed after discussion. […] The taste was assessed independently by 3 persons either in the original samples or after appropriate dilution to achieve relevant concentrations of sugars and steviol-glycosides (i.e. 5-9% SE); the final description was agreed after discussion.
# [3] = as above; format: in vivo, human; remark: listed apart in the source
# [4] = Sensory evaluation of GSGs and SGs, Thaumatin, NHDC and combinations in water (Example 255); format: in vivo, human
# Procedure: 4.5 ppm Thaumatin (equivalent to 10 ppm EPCalin) was dissolved in water. Increasing amounts of NHDC (1-5 ppm) were added to the solution and the sensory properties were evaluated.
# 50 ppm (GSGs and SGs) were dissolved in water. Increasing amounts of NHDC (1-5 ppm) were added to the solution and the sensory properties were evaluated.
# 50 ppm (GSGs and SGs) and 4.5 ppm Thaumatin (equivalent to 10 ppm EPCalin) were dissolved in water. Increasing amounts of NHDC (1-5 ppm) were added to the solution and the sensory properties were evaluated.
# Sweetness intensity was rated on 5-point scale
# Sweetness intensity was rated on a 5-point scale
# [5] = cited from earlier work
# [6] = Assay to test reducing power (active iron-III reduction), Example 64; format: physicochemical; settings: 100° C., up to 5.0 hours, diluted 1:10; FIG. 49
# [7] = DPPH radical-scavenging activity, Example 65; format: physicochemical; settings: 100° C., up to 5.0 hours, diluted 1:10; FIG. 50
# Procedure: 1 mg 1,1-Diphenyl-2-picrylhydrazyl radical (DPPH)/ml ethanol, dilution to assay concentration were prepared in ethanol (40 μg/mL); Calibration samples were prepared with Ascorbic acid in a concentration of 0-10 μg/mL; as a negative control sample, water was used.
# Samples in aqueous solution were used as such or diluted with water.
# A 0.1 ml sample (or calibration standard) was mixed with 3.9 ml solution of DPPH (100 μMolar) and reacted while protected from light at room temperature for 30 min. Absorbance was determined at 517 nm against ethanol.
# 10 mM of amino acid and/or 10 mM sugar were dissolved in 10 ml 0.1 mM KH2PO4-buffer, pH=7.8.
# The samples were kept at 100° C. in sealed glass vials (Pyrex 15 ml with screw caps) for 0 (before reaction), 2.5 or 5.0 hours. Thereafter the samples were transferred to an ice water bath and cooled down to room temperature. These samples were diluted 1:10 and used for the test assay for anti-oxidant potential.
# [8] = HPLC/DAD/MS detection of MRI (Amadori) products and degradation kinetics of reactants at various pH-conditions; settings: reaction of Phe and Xyl
# [9] = Table 52.2, 1 ml water + 9 ml Glycerin, 0.67 h, 100° C.
# [10] = Table 52.5, 1 ml water + 9 ml Glycerin, 2.0 h, 120° C.
# [11] = Table 52.6, Glycerin 10 ml, 100° C., 40 min
# [12] = Table 52.7, Glycerin 10 ml, 1 h, 120° C.
# [13] = Table 56.1, negative controls (no carbohydrate source), 10 ml glycerin/water=9:1, 100° C., 40 minutes
# [14] = Table 57.2, before reaction, 10 ml KH2PO4, pH 7.8
# [15] = Table 52.1, samples of Example 50 after reaction
# [16] = Table 57.3, after reaction, 10 ml KH2PO4, pH 7.8, 2.5 h, 120° C.
molecule,measurement,setting,value
C[C@H](N)C(=O)O [0.1 mMol Ala],Smell,[1]; [9],Agar
same,Taste,[1]; [9],sweet
O=C[C@H](O)[C@H]1OC(=O)[C@@H](O)[C@H]1O [0.1 mMol GlucLac],Smell,[1]; [10],Burnt sugar
N[C@@H](Cc1ccccc1)C(=O)O [0.1 mMol Phe],Intensity of Smell,[1]; [10],+
same,Smell,[1]; [10],"Caramel, burnt"
C=C1C[C@@]23CC[C@H]4[C@@](C)(CCC[C@@]4(C)C(=O)O[C@@H]4O[C@H](CO)[C@@H](O)[C@H](O)[C@H]4O)[C@@H]2CC[C@]1(O[C@@H]1O[C@H](CO)[C@@H](O)[C@H](O[C@@H]2O[C@H](CO)[C@@H](O)[C@H](O)[C@H]2O)[C@H]1O[C@@H]1O[C@H](CO)[C@@H](O)[C@H](O)[C@H]1O)C3 [0.05 mMol Reb-A],Smell,[1]; [9],neutral/unpleasant
same,Taste,[1]; [9],sweet
N[C@@H](Cc1ccccc1)C(=O)O [3.3 mMol Phe],Smell,"[1]; Table 52.6, Glycerin 10 ml, 100° C., 5 min",Slightly bloomy
same,Smell,"[1]; Table 52.6, Glycerin 10 ml, 100° C., 10 min",flowery/bloomy
same,Smell,"[1]; Table 52.6, Glycerin 10 ml, 100° C., 20 min",flowery/bloomy
same,Smell,[1]; [11],flowery/bloomy
same,Smell,[1]; [12],flowery/bloomy
C[C@H](N)C(=O)O [8.91 mg Ala],Taste,[2]; [13],Slightly sweet
OC[C@H]1OC(O)[C@H](O)[C@@H](O)[C@@H]1O (stereo partly drawn) [9 mg Glucose],Smell,[3]; [14],neutral
same,Taste,[3]; [14],Sweet
OC[C@H]1OC(O)[C@H](O)[C@@H](O)[C@@H]1O (stereo partly drawn) [10 mMol Glu],Smell,[1]; [11],Slightly Caramel
same,Smell,[1]; [12],Slightly Caramel
COc1ccc(CCC(=O)c2c(O)cc(O[C@@H]3O[C@H](CO)[C@@H](O)[C@H](O)[C@H]3O[C@@H]3O[C@@H](C)[C@H](O)[C@@H](O)[C@H]3O)cc2O)cc1O [10 ppm NHDC],Sensory evaluation,[4]; combinations of EPCalin and NHDC in water,"Sweet, steep onset of sweetness, no lingering"
N[C@@H](CO)C(=O)O [10.5 mg Ser],Smell,[2]; [13],Lotus flower
same,Taste,[2]; [13],Slightly sweet
O=C(O)[C@@H]1CCCN1 [11.5 mg Pro],Taste,[2]; [13],Slightly sweet
C[C@@H](O)[C@H](N)C(=O)O [11.91 mg Thr],Smell,[2]; [13],"Vanilla, butter"
same,Taste,[2]; [13],Slightly sweet
N[C@@H](CS)C(=O)O [12.1 mg Cys],Smell,[2]; [13],Unpleasant (sulfur)
same,Taste,[2]; [13],Slightly sweet
CC[C@H](C)[C@H](N)C(=O)O [13.11 mg Ile],Smell,[2]; [13],Coffee
same,Taste,[2]; [13],Slightly sweet
NCCCC[C@H](N)C(=O)O [14.7 mg Lys],Smell,[2]; [13],Popcorn
same,Taste,[2]; [13],Slightly sweet
CSCC[C@H](N)C(=O)O [14.9 mg Met],Smell,[2]; [13],Sulfuric
same,Taste,[2]; [13],Slightly sweet
NC(=O)CC[C@H](N)C(=O)O [14.62 mg Gln],Taste,[2]; [13],Slightly sweet
N[C@@H](Cc1ccccc1)C(=O)O [16.5 mg Phe],Smell,"[2]; Example 58, after reaction","Caramel, burnt"
same,Taste,"[2]; Example 58, after reaction, after dilution 1:20",Sweet
same,Smell,"[2]; Example 58, before reaction",Neutral
same,Smell,[2]; [13],"Bloomy, caramel"
same,Taste,[2]; [13],Slightly sweet
same,Smell,[3]; [14],neutral
same,Taste,[3]; [14],No taste
N[C@@H](Cc1ccc(O)cc1)C(=O)O [18.1 mg Tyr],Smell,[2]; [13],neutral
same,Taste,[2]; [13],Slightly sweet
N[C@@H](Cc1c[nH]c2ccccc12)C(=O)O [20.42 mg Try],Smell,[2]; [13],Unpleasant (fecal)
same,Taste,[2]; [13],Slightly sweet
N[C@@H](CCC(=O)O)C(=O)O [167 mMol Glu],Smell,[1]; [15],caramel
same,Taste,[1]; [15],Sweet
O=C[C@H](O)[C@@H](O)[C@H](O)[C@H](O)C(=O)O [Glucuronic Acid],Smell,[3]; [16],burnt bread
same,Taste,[3]; [16],Bitter
O=C1O[C@@H]2[C@@H](O)[C@H](O)O[C@@H]2C1O (stereo partly drawn) [Glucuronolactone],Smell,[3]; [16],Burnt sugar
same,Taste,[3]; [16],Bitter
"CC1(C)[C@@H](O[C@H]2O[C@H](C(=O)O)[C@@H](O)[C@H](O)[C@H]2O[C@@H]2O[C@H](C(=O)O)[C@@H](O)[C@H](O)[C@H]2O)CC[C@]2(C)[C@H]3C(=O)C=C4[C@@H]5C[C@@](C)(C(=O)O)CC[C@]5(C)CC[C@@]4(C)[C@]3(C)CC[C@@H]12 [Glycyrrhizin, reference compound]",times sweeter than sucrose (sugar),[5]; sweetness depends on the tested concentration compared with sucrose,30 to 50 times
"COc1ccc(CCC(=O)c2c(O)cc(O[C@@H]3O[C@H](CO)[C@@H](O)[C@H](O)[C@H]3O[C@@H]3O[C@@H](C)[C@H](O)[C@@H](O)[C@H]3O)cc2O)cc1O [NHDC, Neohesperidin dihydrochalcone, reference compound]","sensory properties (sweetness, onset, mouth-feel, lingering)","[4]; in water, 4.5 ppm Thaumatin and/or 50 ppm GSGs and SGs with NHDC",long lasting lingering
N[C@@H](Cc1ccccc1)C(=O)O [Phe 60 mMol],Smell,[1]; [15],flowery/bloomy-caramel
same,Taste,[1]; [15],Sweet
N[C@H](Cc1ccccc1)C(=O)O [Phe],Taste,[3]; [16],sweet
"C=C1C[C@@]23CC[C@H]4[C@@](C)(CCC[C@@]4(C)C(=O)O[C@@H]4O[C@H](CO)[C@@H](O)[C@H](O)[C@H]4O)[C@@H]2CC[C@]1(O[C@@H]1O[C@H](CO)[C@@H](O)[C@H](O[C@@H]2O[C@H](CO)[C@@H](O)[C@H](O)[C@H]2O)[C@H]1O[C@@H]1O[C@H](CO)[C@@H](O)[C@H](O)[C@H]1O)C3 [Reb-A, Rebaudioside A]",active iron-III reduction (anti-oxidant properties),[6],substantial anti-oxidant properties
same,radical scavenging properties (anti-oxidant properties),[7],substantial anti-oxidant properties
O=C[C@H](O)[C@@H](O)[C@H](O)CO [Xyl],% degradation,[8]; pH = 5.5,4.59%
same,% degradation,[8]; pH = 7.0,6.3%
same,% degradation,[8]; pH = 8.5,9.47%
"Miraculin: A protein that does not taste sweet by itself but modifies taste receptors to make sour things taste sweet temporarily (protein, UniProt P13087 30-220, looked up) Miraculin: DSAPNPVLDIDGEKLRTGTNYYIVPVLRDHGGGLTVSATTPNGTFVCPPRVVQTRKEVDHDRPLAFFPENPKEDVVRVSTDLNINFSAFMPCRWTSSTVWRLDKYDESTGQYFVTIGGVKGNPGPETISSWFKIEEFCGSGFYKLVFCPTVCGSCKVKCGDVGIYIDQKGRRRLALSDKPFAFEFNKTVYF",Notes (sweet taste),[5]; in vivo,A protein that does not taste sweet by itself
